Values of other authors, collected in US11878071B2, “Product for dyeing keratinous material, containing aminosilicone, a chromophoric compound, preservative and a fatty constituent” (Henkel AG & Co. KGaA, priority 2019, dated 2024).

Conditions: 25° C.

CCN(Cc1cccc(S(=O)(=O)[O-])c1)c1ccc(C(=C2C=CC(=[N+](CC)Cc3cccc(S(=O)(=O)[O-])c3)C=C2)c2ccccc2S(=O)(=O)[O-])cc1.[Na+].[Na+] [Acid Blue 9]
solubility in water: more than 20 % by weight

O=S(=O)([O-])c1ccc(N=Nc2c(O)ccc3ccccc23)cc1.[Na+] [Acid Orange 7, sodium salt of 4-[(2-hydroxy-1-naphthyl)azo]benzene sulphonate]
solubility in water: more than 7 g/L

Nc1cc(S(=O)(=O)[O-])cc2cc(S(=O)(=O)[O-])c(N=Nc3ccccc3)c(O)c12.[Na+].[Na+] [Acid Red 33, diantrium salt of 5-amino-4-hydroxy-3-(phenylazo)-naphthalene-2,7-disulphonate]
solubility in water: 2.5 g/L

O=C([O-])c1c(Cl)c(Cl)c(Cl)c(Cl)c1-c1c2c(Br)cc(=O)c(Br)c-2oc2c(Br)c(O)cc(Br)c12.O=C([O-])c1c(Cl)c(Cl)c(Cl)c(Cl)c1-c1c2c(Br)cc(=O)c(Br)c-2oc2c(Br)c(O)cc(Br)c12.[Na+].[Na+] [Acid Red 92, disodium salt of 3,4,5,6-tetrachloro-2-(1,4,5,8-tetrabromo-6-hydroxy-3-oxoxanthen-9-yl)benzoic acid]
solubility in water: greater than 10 g/L

O=C([O-])C1=NN(c2ccc(S(=O)(=O)[O-])cc2)C(=O)C1N=Nc1ccc(S(=O)(=O)[O-])cc1.[Na+].[Na+].[Na+] (centres unmarked) [Acid Yellow 23, trisodium salt of 4,5-dihydro-5-oxo-1-(4-sulfophenyl)-4-((4-sulfophenyl)azo)-1H-pyrazole-3-carboxylic acid]
solubility in water: highly soluble in water
